Assay results as given in US20230119479A1, “A HISTONE DEACETYLASE INHIBITOR HAVING A NITROGEN-CONTAINING AROMATIC HETEROCYCLYL GROUP” (SHIONOGI & CO., LTD., priority 2019, published 2023).

Target: T1, HDAC2 Human recombinant C-terminal FLAG-tag (Homo sapiens, UniProt Q92769)
T1 construct: FLAG (C); purchased BPS Bioscience 50052
Assay: Measurement of HDAC2 enzyme inhibitory activity (HTRF)
Format: biochemical
Details: recombinant HDAC2, H3K9ac peptide, 3 hours room temperature; read-out: HDAC2 IC50
Procedure: Test Example 1: Measurement of HDAC2 Enzyme Inhibitory Activity
The HDAC2 enzyme inhibitory activity was measured by the method described in the following test example.
To each well of a 384-well plate (Corning, 4514), DMSO solution of the test compound was dispensed at 50 nL/well from a final concentration of 99 μM to 8 points (n=2) in the 3-fold dilution series using Echo555 (Beckman Coulter). 2.5 μl of 0.005 mg/mL recombinant enzyme HDAC2 (HDAC2 Human recombinant C-terminal FLAG-tag, BPS Bioscience, 50052) was added to each well, 2.5 μl of 0.6 μM H3K9ac peptide (Lys(Ac)9-Histone H3 (1-21)-GGK(Biotin), AnaSpec, 64361) was added, mixed, and reacted in a wet box at room temperature for 3 hours. 50 mM Tris HCL pH8.0, 137 mM sodium chloride, 2.7 mM potassium chloride, 1 mM magnesium chloride, 0.01% Tween20, and 0.1% BSA which were diluted with ultrapure water were used as a reaction buffer at this time. After the reaction, 5 μL of 10 μM SAHA (suberoylanilide hydroxamic acid) as a reaction terminator and the 5 μL of a mixture of 2.5 ng of H3K9me0 antibody (ActiveMotif, 61399) labeled in-house with europium cryptate (Cisbio, 65EUSABA) and 125 nM streptavidin-XL665 (Cisbio, 610SAXLA) as an HTRF (time-resolved fluorescence) reagent were added to each well, mixed, and allowed to stand in a wet box at room temperature for reaction. A detection buffer used at this time was 50 mM Tris HCL pH 8.0, 0.8 M potassium fluoride, and 0.1% BSA which were diluted with ultrapure water. After reacting for 2 hours or more, HTRF was measured using a multi-plate reader such as SpectraMax Paradigm (MOLECULAR DEVICE) or RUBYstar (BMG LABTECH). Ratio (665 nm/615-620 nm×10000) was calculated from the fluorescence values of two wavelengths, 615-620 nm and 665 nm, which were excited at 320-340 nm, and the energy transition was obtained.

T1 sequence (Q92769 whole entry): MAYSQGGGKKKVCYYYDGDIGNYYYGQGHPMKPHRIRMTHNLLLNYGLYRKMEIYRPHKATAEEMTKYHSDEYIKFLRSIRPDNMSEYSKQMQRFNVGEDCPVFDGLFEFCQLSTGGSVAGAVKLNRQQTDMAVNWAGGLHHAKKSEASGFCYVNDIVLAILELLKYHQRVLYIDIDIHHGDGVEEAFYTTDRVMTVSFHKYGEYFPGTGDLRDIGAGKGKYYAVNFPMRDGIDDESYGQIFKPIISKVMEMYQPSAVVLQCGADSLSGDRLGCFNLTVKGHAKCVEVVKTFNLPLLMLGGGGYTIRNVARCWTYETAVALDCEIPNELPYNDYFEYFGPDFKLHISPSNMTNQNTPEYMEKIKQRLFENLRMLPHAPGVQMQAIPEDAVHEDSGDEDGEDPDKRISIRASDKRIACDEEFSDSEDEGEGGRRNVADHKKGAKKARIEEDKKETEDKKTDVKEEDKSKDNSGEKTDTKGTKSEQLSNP

Row | IC50 | SMILES
1 | 0.056 µM | Cn1cc(-c2ccc(C(=O)Nc3cc(-c4cccs4)ccc3N)nc2)nn1 [Compound I-001]
2 | 0.054 µM | Cn1cc(-c2ccc(C(=O)Nc3cc(-c4ccco4)ccc3N)nc2)nn1 [Compound I-002]
3 | 0.064 µM | Cn1cc(-c2ccc(C(=O)Nc3cc(-c4cnco4)ccc3N)nc2)cn1 [Compound I-004]
4 | 0.22 µM | Cn1cc(-c2ccc(C(=O)Nc3cc(-c4ccco4)ccc3N)nc2)cn1 [Compound I-005]
5 | 0.096 µM | Cn1cc(-c2cnc(C(=O)Nc3cc(-c4cccs4)ccc3N)cn2)cn1 [Compound I-007]
6 | 0.12 µM | Cn1cc(-c2cnc(C(=O)Nc3cc(-c4ccco4)ccc3N)cn2)cn1 [Compound I-008]
7 | 0.061 µM | Cn1cc(-c2cnc(C(=O)Nc3cc(-c4cnco4)ccc3N)cn2)cn1 [Compound I-009]
8 | 0.031 µM | Cn1cc(-c2cnc(C(=O)Nc3cc(-c4cncs4)ccc3N)cn2)cn1 [Compound I-010]
9 | 0.057 µM | Cn1cc(-c2ccc(C(=O)Nc3cc(-c4cnco4)ccc3N)nc2)nn1 [Compound I-011]
10 | 0.094 µM | Cn1cc(-c2cnc(C(=O)Nc3cc(-c4cnco4)ccc3N)cn2)nn1 [Compound I-012]
11 | 0.1 µM | Cn1cc(-c2cnc(C(=O)Nc3cc(-n4cccc4)ccc3N)cn2)cn1 [Compound I-013]
12 | 0.2 µM | Cn1cc(-c2cnc(C(=O)Nc3cc(-c4cccs4)ccc3N)nc2)cn1 [Compound I-014]
13 | 0.16 µM | Cn1cc(-c2cnc(C(=O)Nc3cc(-c4cccs4)ccc3N)c(F)c2)cn1 [Compound I-016]
14 | 0.26 µM | Nc1ccc(-c2cncs2)cc1NC(=O)c1ccc(C(F)(F)F)cn1 [Compound I-020]
15 | 0.22 µM | Nc1ccc(-c2cncs2)cc1NC(=O)c1ccc(OC(F)(F)F)cn1 [Compound I-021]
16 | 0.47 µM | Cn1cc(-c2cnc(C(=O)Nc3nc(-c4cccs4)ccc3N)c(F)c2)cn1 [Compound I-022]
17 | 0.37 µM | Cn1cc(-c2ccc(C(=O)Nc3nc(-n4cccc4)ccc3N)nc2)cn1 [Compound I-025]
18 | 0.32 µM | Cn1cc(-c2cnc(C(=O)Nc3nc(-c4ccco4)ccc3N)cn2)cn1 [Compound I-026]
19 | 0.13 µM | Cn1cc(-c2ccc(C(=O)Nc3cc(-c4cccs4)ccc3N)nn2)cn1 [Compound I-027]
20 | 0.14 µM | Cc1ncc(-c2ccc(N)c(NC(=O)c3ccc(-c4cnn(C)c4)cn3)c2)s1 [Compound I-032]
21 | 0.088 µM | Cn1cc(-c2ccc(C(=O)Nc3cc(-c4ccc(F)nc4)ccc3N)nc2)cn1 [Compound I-033]

Row | IC50 | SMILES
22 | 0.28 µM | Cn1cc(-c2ccc(C(=O)Nc3nc(-c4cccs4)ccc3N)nc2)nn1 [Compound I-034]
23 | 0.18 µM | Cn1cc(-c2ccc(C(=O)Nc3cc(-c4cnn(C)c4)ccc3N)nc2)cn1 [Compound I-037]
24 | 0.42 µM | Cn1cc(-c2cnc(C(=O)Nc3nc(-c4ccccc4)ccc3N)cn2)cn1 [Compound I-039]
25 | 0.063 µM | Cn1cc(-c2ccc(C(=O)Nc3cc(-c4ccc(F)nc4)ccc3N)nc2)nn1 [Compound I-040]
26 | 0.054 µM | Cn1cc(-c2ccc(C(=O)Nc3cc(-c4cncs4)ccc3N)nc2)nn1 [Compound I-046]
27 | 0.03 µM | Cn1cc(-c2ccc(C(=O)Nc3cc(-c4cncs4)ccc3N)nc2)nn1 [Compound I-047]
28 | 0.12 µM | Cn1cc(-c2ccc(C(=O)Nc3cc(-n4cccc4)ccc3N)nc2)cn1 [Compound I-056]
29 | 0.32 µM | CCCCc1ccc(C(=O)Nc2cc(-c3cncs3)ccc2N)nc1 [Compound I-057]
30 | 0.13 µM | C#Cc1ccc(C(=O)Nc2cc(-c3cncs3)ccc2N)nc1 [Compound I-058]
31 | 0.047 µM | Nc1ccc(-c2cncs2)cc1NC(=O)c1cc2ccncc2cn1 [Compound I-060]
32 | 0.21 µM | Cn1cc(-c2ccc(C(=O)Nc3nc(-c4cncs4)ccc3N)nc2)cn1 [Compound I-061]
33 | 0.27 µM | Cn1cc(-c2ccc(C(=O)Nc3cc(-n4cccn4)ccc3N)nc2)cn1 [Compound I-063]
34 | 0.096 µM | Nc1ccc(-c2cncs2)cc1NC(=O)c1cnc2[nH]ccc2n1 [Compound I-064]
35 | 0.33 µM | Nc1ccc(-c2cncs2)cc1NC(=O)c1ccc2nccn2n1 [Compound I-065]
36 | 0.11 µM | Nc1ccc(-c2cncs2)cc1NC(=O)c1cc2ccccc2cn1 [Compound I-066]
37 | 0.12 µM | Nc1ccc(-c2cncs2)cc1NC(=O)c1cc2c(cn1)OCCC2 [Compound I-067]
38 | 0.14 µM | Nc1ccc(-c2ccc(F)nc2)cc1NC(=O)c1cc2ccncc2cn1 [Compound I-068]
39 | 0.16 µM | N#Cc1ccc(C(=O)Nc2cc(-c3cncs3)ccc2N)nc1 [Compound I-069]
40 | 0.24 µM | Nc1ccc(-c2cncs2)cc1NC(=O)c1cc2c(cn1)OC(F)(F)CO2 [Compound I-070]
41 | 0.16 µM | Nc1ccc(-c2cncs2)cc1NC(=O)c1ccc(Cl)cn1 [Compound I-071]
42 | 0.48 µM | Nc1ccc(-c2cncs2)cc1NC(=O)c1cc(Cl)c(Cl)cn1 [Compound I-072]

Row | IC50 | SMILES
43 | 0.12 µM | Nc1ccc(-c2cncs2)cc1NC(=O)c1cc2c(cn1)OCCO2 [Compound I-073]
44 | 0.27 µM | Nc1ccc(-c2cncs2)cc1NC(=O)c1cc2c(cn1)OC(F)(F)O2 [Compound I-074]
45 | 0.48 µM | Cn1cc(-c2cnc(C(=O)Nc3nc(-c4ccc(F)nc4)ccc3N)cn2)cn1 [Compound I-079]
46 | 0.28 µM | Nc1ccc(-c2cncs2)cc1NC(=O)c1ccc2[nH]ccc2n1 [Compound I-081]
47 | 0.34 µM | Nc1ccc(-c2cncs2)cc1NC(=O)c1ccc2c(n1)CCCC2 [Compound I-082]
48 | 0.16 µM | Nc1ccc(-c2cncs2)cc1NC(=O)c1ccc2c(n1)CCC2 [Compound I-083]
49 | 0.31 µM | Cn1cc(-c2ccc(C(=O)Nc3cc(-c4ccon4)ccc3N)nc2)cn1 [Compound I-084]
50 | 0.18 µM | Nc1ccc(-c2ccc(F)nc2)cc1NC(=O)c1cnc2[nH]ccc2n1 [Compound I-086]
51 | 0.4 µM | Nc1ccc(-c2ccc(F)nc2)cc1NC(=O)c1ccc(F)cn1 [Compound I-089]
52 | 0.29 µM | Nc1ccc(-c2ccc(F)nc2)cc1NC(=O)c1ccc(Cl)cn1 [Compound I-090]
53 | 0.23 µM | CC#Cc1ccc(C(=O)Nc2cc(-c3cncs3)ccc2N)nc1 [Compound I-094]
54 | 0.27 µM | C#Cc1ccc(C(=O)Nc2cc(-c3ccc(F)nc3)ccc2N)nc1 [Compound I-096]
55 | 0.16 µM | Nc1ccc(-c2ccc(F)nc2)cc1NC(=O)c1cc2c(cn1)OCCO2 [Compound I-097]
56 | 0.24 µM | Cn1cc(-c2ccc(N)c(NC(=O)c3cc4c(cn3)OCCO4)c2)cn1 [Compound I-098]
57 | 0.072 µM | COc1cnc(C(=O)Nc2cc(-c3cncs3)ccc2N)cn1 [Compound I-099]
58 | 0.1 µM | Nc1ccc(-c2cncs2)cc1NC(=O)c1cnc(OCF)cn1 [Compound I-100]
59 | 0.092 µM | Nc1ccc(-c2cncs2)cc1NC(=O)c1ccc(C2CC2)cn1 [Compound I-101]
60 | 0.085 µM | Nc1ccc(-c2ccc(F)nc2)cc1NC(=O)c1ccc(CN2CCCC2=O)cn1 [Compound I-104]
61 | 0.084 µM | Nc1ccc(-c2ccc(F)nc2)cc1NC(=O)c1ccc(CN2CCCCC2=O)cn1 [Compound I-108]
62 | 0.19 µM | N#Cc1ccnc(C(=O)Nc2cc(-c3cncs3)ccc2N)c1 [Compound I-109]
63 | 0.15 µM | Nc1ccc(-c2ccc(F)nc2)cc1NC(=O)c1ccc(C2CC2)cn1 [Compound I-111]
